Results as given in ChEMBL document CHEMBL1201862, “PubChem BioAssay data set” (2004).
Activity calls are given as the source filed them. The rule behind the calls is not given here.

Assay: viability of PTEN-deleted HCT116 cells – cell-based, HCT116 PTEN knockout, dose response (AID 1047);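 note: HCT116 colon tumor cells with PTEN knocked out; cells exposed to compound for 60 hours before readout; potency for loss of cell viability measured by luminescence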
Assay type: functional

**Q.** For `Cc1ccc(NC2=CC(=O)C(=O)c3ccccc32)cc1`, which EC50 is on record?
**A.** The EC50 was 6.79 µM (active).
